# pEC50: −log10 of the molar value.
# Target: Solute carrier family 2, facilitated glucose transporter member 9 (Homo sapiens) (UniProt Q9NRM0)
# Experiment: GLUT9 transporter activity via membrane potential – cell-based, membrane potential dye, HEK-293, SLC2A9 overexpression, dose response (AID 1794831)
# Conditions: HEK-293 SLC2A9 OE, FLIPR membrane potential dye
# Chain of Solute carrier family 2, facilitated glucose transporter member 9 (Homo sapiens) (Q9NRM0 whole entry, looked up): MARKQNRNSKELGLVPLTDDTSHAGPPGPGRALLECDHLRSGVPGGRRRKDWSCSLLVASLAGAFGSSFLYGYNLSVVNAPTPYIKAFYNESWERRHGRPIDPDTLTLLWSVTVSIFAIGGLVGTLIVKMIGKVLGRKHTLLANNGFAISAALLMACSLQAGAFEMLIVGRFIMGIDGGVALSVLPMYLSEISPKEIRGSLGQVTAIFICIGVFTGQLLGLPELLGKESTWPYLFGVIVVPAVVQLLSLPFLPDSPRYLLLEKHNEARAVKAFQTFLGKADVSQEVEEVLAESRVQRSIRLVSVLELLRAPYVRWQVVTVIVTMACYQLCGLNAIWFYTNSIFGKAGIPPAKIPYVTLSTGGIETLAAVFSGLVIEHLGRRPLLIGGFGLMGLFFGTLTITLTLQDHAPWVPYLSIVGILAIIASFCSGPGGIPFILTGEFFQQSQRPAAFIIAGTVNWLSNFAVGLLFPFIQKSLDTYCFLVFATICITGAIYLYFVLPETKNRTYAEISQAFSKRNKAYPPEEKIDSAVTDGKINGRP
row,pEC50,Compound
1,3.00,O=C(O)c1cc(=O)[nH]c(=O)[nH]1
2,3.52,O=c1[nH]c(=O)c2[nH]c(=O)[nH]c2[nH]1

# — PubChem BioAssay AID1794831
